Data on 92 compounds can be found in a melting point compilation (Tetko et al.; mined from patent text by program, amines drawn as free bases though some values may be those of a salt).

Each structure is given as a SMILES string.

Turning to `O=C1N(c2ccc(Br)cc2)C(Cl)(Cl)C2CCCCC12Cl` (configuration not stated), the melting point fell in the range of 148 to 150 °C.

Compound `CC(=O)Nc1nc2c(Oc3cc(-c4ccc(C(F)(F)F)cc4NC(=O)C4CCCCN4C(C)C)ncn3)cccc2s1` (configuration not stated) showed a melting point of 260 °C.

For `CN(C)S(=O)(=O)c1ccc(COc2cccc3c2CN(C2CCC(=O)NC2=O)C3=O)cc1` (configuration not stated), the melting point is 261 to 263 °C.

The compound `O=C(O)CCCC=Cc1nn(-c2ccc(Cl)cc2)c2c1CCC2` displayed a melting point of 132 to 134 °C.

As to `CNc1ccc(CCl)cc1[N+](=O)[O-]`, the melting point fell in the range of 126 to 128 °C.

Regarding `CCO/C(=C\c1ccsc1)C(=O)O`, the melting point was in the range of 88 to 89 °C.

Consider `O=C1NC(C(=O)NCCO[N+](=O)[O-])C(c2ccc(Cl)cc2)S1` (configuration not stated), for which the melting point is 125 to 127 °C.

`CC1=NC(NC(=O)Nc2cccc(C)c2)C(=O)N(CC(=O)C2CCCC2)c2c(C)cccc21` (configuration not stated) showed a melting point of 150 to 156 °C.

The compound `Cc1cc(C)c2c(n1)N(CCN1CCOCC1)c1ccccc1N(C)C2=O` registered a melting point of 133 to 135 °C.

`COc1cccc([C@H]2O[C@H](CC(=O)Nc3cccc(CCCC(=O)O)c3)C(=O)N(CC(C)(C)CO)c3ccc(Cl)cc32)c1OC` gave a melting point of 119 to 122 °C.

With `CCC(O)C(=O)Nc1c(C)c(C)c2c(c1C)C(c1ccc(C(C)C)cc1)CO2` (configuration not stated), the melting point fell in the range of 146 to 147 °C.

Turning to `Cc1nc(-n2ccc(NC(=O)c3ccccc3)cc2=O)sc1C(=O)NCc1ccccc1`, the melting point lay in the range of 246 to 248 °C.

The compound `O=C(Oc1ccc([N+](=O)[O-])cc1)C(=O)N1CCOC1=O` yielded a melting point of 159 °C.

With `CC1(C)CN2C(=O)c3ncccc3C(O)(c3ccc(Cl)cc3)C2=N1` (configuration not stated), the melting point lay within 257 to 260 °C.

With `Oc1cc(C(F)(F)F)nn1-c1ccc(Cl)cn1`, the melting point lay within 58 to 59 °C.

Consider `NC(=O)c1cccc(OCCF)c1OCCF`, for which the melting point was in the range of 100 to 101 °C.

With `O=C1Nc2c(C(F)(F)F)cccc2C12COc1cc3c(cc12)OCO3` (configuration not stated), the melting point was in the range of 245 to 248 °C.

In turn, `C#CCc1c(C)nc2c(OCc3ccccc3C)cccn12` yielded a melting point of 138 to 140 °C.

Turning to `CC1NC(=O)NN=C1c1cccc(Cl)c1` (configuration not stated), the melting point was in the range of 206 to 208 °C.

In turn, `CCC(CC)Cn1c(=O)c(=O)[nH]c2cc([N+](=O)[O-])c(-n3cccc3)cc21` had a melting point of 154 to 155 °C.

The compound `CCOC(=O)Nc1nc(-c2ccccc2)c(-c2nc3ccccc3c(=O)n2-c2ccccc2)s1` yielded a melting point of 245 to 247 °C.

`Cn1cc(-c2ccccc2)c(=O)c(-c2cccc(S(C)=O)c2)c1` (configuration not stated) yielded a melting point of 161 to 164 °C.

`CCCC(CCC)n1nnc2c(Cl)nc(C)cc21`: the melting point lay in the range of 90 to 91 °C.

In turn, `O=C1CCCn2c1cc1ccccc12` showed a melting point of 138 to 140 °C.

Regarding `CC(C)(CO)NS(=O)(=O)c1cccc(NC(=O)c2cnn3c(C(F)(F)F)cc(-c4ccc(C(F)(F)F)c(OCC(F)(F)F)c4)nc23)c1`, the melting point was found to be 251 °C.

Consider `CC(C)(C)[N+]([O-])=CCc1ccccc1`, for which the melting point was 143 °C.

As to `COC(=O)c1c(C2=CC(=O)c3cccc(O)c3C2=O)c(C)n(C)c1C`, the melting point was in the range of 178 to 180 °C.

Turning to `CC(=O)Nc1cccc(CCCCC(=O)O)c1`, the melting point lay in the range of 137 to 138 °C.

In turn, `CCOC(=O)C(C(C)=O)C1NC(=O)c2sccc2-n2cccc21` (configuration not stated) came in with a melting point of 196 °C.

As to `O=S(Cc1noc(Cc2ccccc2)n1)c1ccc(CCNC[C@H](O)COc2ccc(O)cc2)cc1` (some centres not stated), the melting point was in the range of 51 to 57 °C.

`CC(C)(C)C(=O)OCCN(CCOC(=O)C(C)(C)C)C(=O)COC(=O)C(C)(C)C` yielded a melting point of 51.4 °C.

Turning to `COC(=O)c1cnc(N)c(N)c1`, the melting point was in the range of 154 to 155 °C.

As for `Cc1ccc(CCCNC(=O)Cc2ccc(OCCN)c([N+](=O)[O-])c2)cc1C`, the melting point worked out at 98 °C.

`Cc1oc(-c2ccccc2)nc1COc1ccc(C(=O)c2ccc(O)cc2OCC(=O)O)cc1`: the melting point is 229 to 230 °C.

With `c1ccc(CN[C@H]2CCCN[C@H]2c2ccc(-c3ccccc3)cc2)cc1` (relative stereo), the melting point is > 268 °C.

In the case of `CC(C)(C)OC(=O)c1ccc(NC2CCc3cc(NC(=O)COCc4ccccc4)c(C#N)cc32)cc1` (configuration not stated), the melting point was 194 to 195 °C.

As for `C1CNCCNCCNCCNCCN1`, the melting point fell in the range of 92 to 103 °C.

Consider `CCOC(=O)c1cc(Br)c2ccccn2c1=O`, for which the melting point fell in the range of 156 to 158 °C.

`CC(C)NC(=O)c1ccc(N2CCC(N3C(=O)OCc4ccccc43)CC2)nn1` yielded a melting point of 120 °C.

Turning to `N#Cc1cc(-c2ccccc2)c(=O)n2c1-c1ccccc1CC2`, the melting point fell in the range of 204 to 205 °C.

`Clc1ccc(OC2CCN(CCc3c[nH]c4ccccc34)CC2)cc1` displayed a melting point of 132 to 133 °C.

On to `CCOC(=O)C1Cn2c(nc3c(cnn3C)c2=O)S1` (configuration not stated), for which the melting point was found to be 159 °C.

With `O=C(O)C1CCN(Cc2cc(Br)cc3[nH]c(=O)c(=O)[nH]c23)CC1`, the melting point was > 300 °C.

Turning to `Cc1ccc2c(c1)OCc1nc(C(=O)O)cn1-2`, the melting point lay in the range of 278 to 279 °C.

Consider `COc1cccc(C(=O)Cl)c1OC(C)=O`, for which the melting point fell in the range of 51 to 54 °C.

`CC(C)Nc1nc(N)nc2c1ncn2C1C=CC(CO)C1` (configuration not stated) yielded a melting point of 87 to 90 °C.

`COC(=O)c1cc(O)c2cc(OC)ccc2c1`: the melting point fell in the range of 193 to 195 °C.

As to `N#Cc1ccc([C@H]2CC[C@H](CI)CC2)cc1`, the melting point was found to be 127 °C.

`N#Cc1c(OCC(F)(F)F)nc(CO)nc1N1CCc2ccccc2CC1` came in with a melting point of 106 to 110 °C.

As for `CC(C)Oc1ccc(CCCO)c(OCc2ccc(Cl)cc2Cl)c1`, the melting point was in the range of 75.5 to 76.5 °C.

`CCOC(=O)c1cnc2c3cc(OC)c(OC)cc3ccn2c1=O`: the melting point lay within 264 to 265 °C.

For the compound `Oc1ccc(-c2cnc(NC(=S)Cc3ccccc3)c(Cc3ccccc3)n2)cc1`, the melting point was in the range of 195 to 198 °C.

`CC(C)Oc1cc(Oc2ccc(S(C)(=O)=O)cn2)cc2cc(C3=NCC(CC(N)=O)S3)[nH]c12` (configuration not stated): the melting point fell in the range of 212 to 213 °C.

`O=C1NC(=O)C(c2ccc(NCc3ccc(Cl)c(Cl)c3)cc2)S1` (configuration not stated) came in with a melting point of 132 to 133 °C.

`COC(=O)N(C)N=C(c1ccc(Cl)cc1)C(C)(C)C` yielded a melting point of 58 to 60 °C.

Turning to `NS(=O)(=O)c1ccc(-c2cccc(-c3nc(-c4ccc(C(F)(F)F)cc4F)cc(C(F)(F)F)n3)c2)s1`, the melting point was 192 °C.

Compound `Clc1ccc2c(c1)CCc1cccnc1C2=C1CCN(Cc2ccc(Cl)nc2)CC1` returned a melting point of 76.2 to 81.7 °C.

In the case of `CCCCCCCCCCCOCc1ccc(C(=O)O)cc1OCCCCCCCCCCC`, the melting point was 61 to 63 °C.

Take `Cc1ccc(N2CCN(c3c(C)c(O)c4c(c3C)CC(C)(C)O4)CC2)cc1`: the melting point lay in the range of 185 to 189 °C.

Turning to `CN(CCO)c1nccc(-c2ccncc2)n1`, the melting point was 191 to 195 °C.

As to `O=C(CI)Nc1ccc(C(=O)O)cc1`, the melting point fell in the range of 194 to 196 °C.

`N#CC(Cc1c(Cl)cccc1Cl)C(=O)O` (configuration not stated): the melting point lay in the range of 106 to 108 °C.

`CN(C)c1ccnc(CO)n1` returned a melting point of 83 to 84 °C.

For the compound `CC(=N)c1ccccc1O`, the melting point fell in the range of 137 to 139 °C.

`Cc1nsc(-c2ccc(N3CCN(c4cccc(C(F)(F)F)c4)CC3)nn2)n1` returned a melting point of 173 °C.

The compound `CC(C)c1[nH]n(-c2c(Cl)cncc2Cl)c2nc(Cc3ccc(CN4CCCC4)c(O)c3)nc(=O)c1-2` registered a melting point of 209 °C.

In the case of `CC(C)Cc1ccc(CCc2cc3c(s2)NC(=S)C(C)N=C3c2ccccc2Cl)cc1` (configuration not stated), the melting point was 188 to 191 °C.

On to `c1ccc(SC2CCN(C(c3ccccc3)c3ccccc3)CC2)cc1`, for which the melting point is 118 to 119 °C.

In turn, `CS(=O)(=O)N(Cc1cccnc1)c1ccccc1` gave a melting point of 104 to 105 °C.

Consider `OC(C#CCN1CCC(O)(c2ccc(Cl)cc2)CC1)c1ccc(F)cc1` (configuration not stated), for which the melting point lay within 145 to 146 °C.

For the compound `CC(C)(C)OC(=O)Oc1nc2c(N)ncnc2n1Cc1ccccc1`, the melting point is 287 to 289 °C.

Consider `CP(C)(=O)CN1CCC(c2nn(-c3ccc(C(F)(F)F)cc3)c3ccccc23)CC1`, for which the melting point was 158 to 160 °C.

The compound `COc1ccc(NN=C(Sc2ccc(C)cc2C)C(C)=O)cc1` had a melting point of 109 to 111 °C.

`COC(=O)c1ccc([N+](=O)[O-])c([N+](=O)[O-])c1` displayed a melting point of 85 to 86 °C.

With `CC(C#N)Oc1ccc(Oc2ccc(C(F)(F)F)cc2)cc1` (configuration not stated), the melting point lay within 53 to 56 °C.

Regarding `Clc1nc(Oc2ccccc2)nc(Oc2ccccc2)n1`, the melting point was in the range of 119 to 121 °C.

`CCOC(=O)C(Cc1ccc2ccccc2c1Br)C(=O)OCC` displayed a melting point of 60 to 65 °C.

Consider `NC(C(=O)O)c1cc(O)cc(O)c1[N+](=O)[O-]` (configuration not stated), for which the melting point is > 280 °C.

Turning to `CCCCn1c(=O)n(Cc2ccccc2)c(=O)c2c(Cl)cc(Cl)cc21`, the melting point is 108 to 110 °C.

In turn, `CCOC(=O)c1cc2ccc3c4ccccc4ccc3c2n1C` showed a melting point of 136 to 138 °C.

The compound `CCOc1nccc(C(=O)OC)c1N` displayed a melting point of 59 to 60.5 °C.

`C=Cc1ccccc1N1CCCCC1` gave a melting point of 147 to 150 °C.

On to `C#CCOc1ccc(CCN(OS(C)(=O)=O)C(=O)Cc2ccc(Cl)cc2)cc1OC`, for which the melting point fell in the range of 91 to 93 °C.

With `C=CCc1cc(C(C)=O)c(NC(C)=O)cc1O`, the melting point fell in the range of 172 to 174 °C.

For the compound `COc1cc2c(cc1C=O)C(C)(C)CO2`, the melting point is 75 to 76 °C.

For `COc1cccc(NC(C)=O)c1`, the melting point is 81 to 82 °C.

Compound `CCOC(=NC(=O)Nc1ccc(Oc2ncc(C(F)(F)F)cc2Cl)cc1)c1c(F)cccc1F` came in with a melting point of 127 to 130 °C.

Compound `CCOc1ccc2c(c1)C(C)(c1ccccc1Cl)C(=O)N2S(=O)(=O)c1ccc(N)cc1OC` (configuration not stated) yielded a melting point of 211 °C.

The compound `C=CCNc1nc(NNC(C)(C)C)c2scc(C)c2n1` registered a melting point of 105 to 107 °C.

As to `Clc1ccc(C2(Cn3cncn3)OCCO2)c(Cl)c1Cl`, the melting point turned out to be 181 °C.

`COC(=O)c1cc(Br)ncc1F`: the melting point lay within 43 to 46 °C.

Consider `Cc1ccc(S(=O)(=O)N[C@@H]2COC(C)(C)OC[C@H]2OS(=O)(=O)c2ccc(C)cc2)cc1` (relative stereo), for which the melting point is 200 to 202 °C.
